In the supplement of paper PMC10627819:

Key:
S. pneumoniae D39V = assay: Bliss interaction score (quartile over a dose matrix) (fitness difference); higher = more antagonism (negative = synergy)
How it was run: (§1)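 The Bliss score subtracts expected fitness, the product of the single-drug fitness values, from observed fitness. Fitness is plate-normalised OD595 at entry into stationary phase, relative to the robust no-drug mean and capped at 1, with single-drug fitness inferred from combinations. Summaries are quartiles over technical, biological and donor/recipient replicates.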

S. aureus DSM 20231 = assay: as above
How it was run: as §1

B. subtilis 168 [1] = assay: as above
How it was run: as §1

S. aureus Newman = assay: as above
How it was run: as §1

B. subtilis 168 [2] = assay: fitness (endpoint OD595 vs no drug) (fraction); higher = more growth
How it was run: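 Fitness was defined as the optical density at the transition into stationary phase relative to the robust mean of no-drug control wells. Values were capped at 1. Cultures were started at OD595 0.01 in 384-well plates (30 µl, or 55 µl for S. pneumoniae) in TSB, LB Lennox or CY at 37 °C. OD595 was recorded every 30 min over 14 h, with the first reading subtracted as background.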
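Throughout, for Bliss interaction score (quartile over a dose matrix): first quartile when negative (synergy) and third quartile when positive (antagonism).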

C[C@H]1c2cccc(O)c2C(=O)C2=C(O)[C@]3(O)C(=O)C(C(N)=O)=C(O)[C@@H](N(C)C)[C@@H]3[C@@H](O)[C@@H]21 [Doxycycline] + COc1cc(Cc2cnc(N)nc2N)cc(OC)c1OC [Trimethoprim]
Conditions | Bliss interaction score
B. subtilis 168 [1] | 0.0804
S. aureus DSM 20231 | 0.108
S. aureus Newman | 0.028
S. pneumoniae D39V | -0.108

fitness, B. subtilis 168 [2], one replicate
Conditions | partner 0.1 µg/mL | partner 0.2 µg/mL | partner 0.4 µg/mL | partner 1 µg/mL | partner 2 µg/mL
first compound 0.02 µg/mL | 0.84 | 0.754 | 0.616 | 0.346 | 0.259
first compound 0.04 µg/mL | 0.683 | 0.51 | 0.391 | 0.234 | 0.146
first compound 0.08 µg/mL | 0.362 | 0.222 | 0.156 | 0.0631 | 0.0715

fitness, B. subtilis 168 [2]
Conditions | first compound 0.02 µg/mL | first compound 0.04 µg/mL | first compound 0.08 µg/mL
partner 0.125 µg/mL | 0.695 | 0.659 | 0.52
partner 0.25 µg/mL | – | 0.644 | 0.448
partner 0.5 µg/mL | – | 0.412 | 0.262

CO/N=C(\C(=O)N[C@@H]1C(=O)N2C(C(=O)O)=C(COC(N)=O)CS[C@H]12)c1ccco1 [Cefuroxime] + CCC[C@@H]1C[C@@H](C(=O)N[C@@H]([C@H]2O[C@H](SC)[C@H](O)[C@@H](O)[C@H]2O)[C@@H](C)O)N(C)C1 [Lincomycin]
Conditions | Bliss interaction score
B. subtilis 168 [1] | 0.0554
S. aureus DSM 20231 | -0.223
S. aureus Newman | -0.0658
S. pneumoniae D39V | 0.0595

fitness, B. subtilis 168 [2], one replicate
Conditions | first compound 0.04875 µg/mL | first compound 0.0975 µg/mL | first compound 0.195 µg/mL | first compound 0.39 µg/mL | first compound 0.78 µg/mL | first compound 1.562 µg/mL | first compound 3.125 µg/mL | first compound 6.25 µg/mL
partner 0.1 µg/mL | 0.88 | 0.8 | – | 0.388 | 0.386 | 0.303 | 0.248 | 0.156
partner 0.2 µg/mL | 0.865 | 0.713 | – | 0.358 | 0.372 | 0.265 | 0.19 | 0.137
partner 0.4 µg/mL | – | – | – | 0.373 | 0.319 | 0.265 | 0.175 | 0.101
partner 0.8 µg/mL | 0.505 | 0.467 | 0.359 | – | – | – | – | –
partner 1.6 µg/mL | 0.498 | 0.428 | 0.323 | – | – | – | – | –

fitness, B. subtilis 168 [2]
Conditions | first compound 0.04875 µg/mL | first compound 0.0975 µg/mL | first compound 0.195 µg/mL
partner 0.1 µg/mL | – | – | 0.554
partner 0.2 µg/mL | – | – | 0.521
partner 0.4 µg/mL | 0.682 | 0.644 | 0.396

O=C(O)c1cn(C2CC2)c2cc(N3CCNCC3)c(F)cc2c1=O [Ciprofloxacin] + CO[C@@H]1[C@@H](OC(N)=O)[C@@H](O)[C@H](Oc2ccc3c(O)c(NC(=O)c4ccc(O)c(CC=C(C)C)c4)c(=O)oc3c2C)OC1(C)C [Novobiocin]
Conditions | Bliss interaction score
B. subtilis 168 [1] | -0.183
S. aureus DSM 20231 | -0.0685
S. aureus Newman | -0.115
S. pneumoniae D39V | -0.161

fitness, B. subtilis 168 [2]
Conditions | first compound 0.0098 µg/mL | first compound 0.0195 µg/mL | first compound 0.039 µg/mL
partner 0.0125 µg/mL | 0.905 | 0.769 | 0.127
partner 0.025 µg/mL | 0.92 | 0.723 | 0.034
partner 0.05 µg/mL | 0.964 | 0.726 | 0.0487

fitness, B. subtilis 168 [2], one replicate
Conditions | partner 0.1 µg/mL | partner 0.125 µg/mL | partner 0.2 µg/mL | partner 0.25 µg/mL | partner 0.5 µg/mL
first compound 0.0098 µg/mL | 0.926 | 0.84 | 0.915 | 0.697 | 0.15
first compound 0.0195 µg/mL | 0.727 | 0.78 | 0.71 | 0.448 | 0.066
first compound 0.039 µg/mL | 0.127 | 0.0634 | 0.089 | 0.0302 | 0.0454

COc1cccc2c1C(=O)c1c(O)c3c(c(O)c1C2=O)C[C@@](O)(C(=O)CO)C[C@@H]3O[C@H]1C[C@H](N)[C@H](O)[C@H](C)O1 [Doxorubicin] + CO[C@@H]1[C@@H](OC(N)=O)[C@@H](O)[C@H](Oc2ccc3c(O)c(NC(=O)c4ccc(O)c(CC=C(C)C)c4)c(=O)oc3c2C)OC1(C)C [Novobiocin]
Conditions | Bliss interaction score
B. subtilis 168 [1] | 0.0565
S. aureus DSM 20231 | -0.0601
S. aureus Newman | -0.082
S. pneumoniae D39V | -0.106

fitness, B. subtilis 168 [2]
Conditions | first compound 0.625 µg/mL | first compound 1.25 µg/mL | first compound 2.5 µg/mL
partner 0.0125 µg/mL | 0.984 | 0.931 | 0.787
partner 0.025 µg/mL | 0.971 | 0.893 | 0.727
partner 0.05 µg/mL | 0.993 | 0.938 | 0.631

fitness, B. subtilis 168 [2], one replicate
Conditions | partner 0.1 µg/mL | partner 0.125 µg/mL | partner 0.2 µg/mL | partner 0.25 µg/mL | partner 0.5 µg/mL
first compound 0.625 µg/mL | 0.972 | 0.912 | ≥ 1 | 0.793 | 0.516
first compound 1.25 µg/mL | 0.99 | 0.901 | 0.971 | 0.785 | 0.305
first compound 2.5 µg/mL | 0.571 | 0.834 | 0.588 | 0.386 | 0.0091

CO/N=C(\C(=O)N[C@@H]1C(=O)N2C(C(=O)O)=C(COC(N)=O)CS[C@H]12)c1ccco1 [Cefuroxime] + CO[C@@H]1[C@@H](OC(N)=O)[C@@H](O)[C@H](Oc2ccc3c(O)c(NC(=O)c4ccc(O)c(CC=C(C)C)c4)c(=O)oc3c2C)OC1(C)C [Novobiocin]
Conditions | Bliss interaction score
B. subtilis 168 [1] | -0.0729
S. aureus DSM 20231 | 0.119
S. aureus Newman | -0.131
S. pneumoniae D39V | 0.0773

B. subtilis 168 [2], one replicate
Conditions | fitness
first compound 0.04875 µg/mL, partner 0.0125 µg/mL | ≥ 1
first compound 0.04875 µg/mL, partner 0.025 µg/mL | 0.997
first compound 0.04875 µg/mL, partner 0.1 µg/mL | 0.563
first compound 0.04875 µg/mL, partner 0.2 µg/mL | 0.528
first compound 0.0975 µg/mL, partner 0.0125 µg/mL | 0.824
first compound 0.0975 µg/mL, partner 0.025 µg/mL | 0.893
first compound 0.0975 µg/mL, partner 0.1 µg/mL | 0.483
first compound 0.0975 µg/mL, partner 0.2 µg/mL | 0.429
first compound 0.195 µg/mL, partner 0.0125 µg/mL | 0.756
first compound 0.195 µg/mL, partner 0.025 µg/mL | 0.76
first compound 0.195 µg/mL, partner 0.1 µg/mL | 0.36
first compound 0.195 µg/mL, partner 0.125 µg/mL | 0.133
first compound 0.195 µg/mL, partner 0.2 µg/mL | 0.335
first compound 0.195 µg/mL, partner 0.25 µg/mL | 0.108
first compound 0.195 µg/mL, partner 0.5 µg/mL | 0.017
first compound 0.39 µg/mL, partner 0.125 µg/mL | 0.116
first compound 0.39 µg/mL, partner 0.25 µg/mL | 0.0783
first compound 0.39 µg/mL, partner 0.5 µg/mL | 0
first compound 0.78 µg/mL, partner 0.125 µg/mL | 0.0821
first compound 0.78 µg/mL, partner 0.25 µg/mL | 0.0334
first compound 0.78 µg/mL, partner 0.5 µg/mL | 0.0061
first compound 1.562 µg/mL, partner 0.0125 µg/mL | 0.318
first compound 1.562 µg/mL, partner 0.025 µg/mL | 0.274
first compound 1.562 µg/mL, partner 0.05 µg/mL | 0.263
first compound 3.125 µg/mL, partner 0.0125 µg/mL | 0.264
first compound 3.125 µg/mL, partner 0.025 µg/mL | 0.23
first compound 3.125 µg/mL, partner 0.05 µg/mL | 0.189
first compound 6.25 µg/mL, partner 0.0125 µg/mL | 0.249
first compound 6.25 µg/mL, partner 0.025 µg/mL | 0.178
first compound 6.25 µg/mL, partner 0.05 µg/mL | 0.159

B. subtilis 168 [2], partner 0.05 µg/mL
Conditions | fitness
first compound 0.0975 µg/mL | 0.665
first compound 0.195 µg/mL | 0.555
